The values below come from ChEMBL document CHEMBL6182948 (J Med Chem, 2025).

One may read the IC50 as the concentration that inhibits the measured activity by half.

One test concerns the target T1, Cytochrome P450 1B1 (Homo sapiens, UniProt Q16678).
T1 sequence (Q16678 whole entry): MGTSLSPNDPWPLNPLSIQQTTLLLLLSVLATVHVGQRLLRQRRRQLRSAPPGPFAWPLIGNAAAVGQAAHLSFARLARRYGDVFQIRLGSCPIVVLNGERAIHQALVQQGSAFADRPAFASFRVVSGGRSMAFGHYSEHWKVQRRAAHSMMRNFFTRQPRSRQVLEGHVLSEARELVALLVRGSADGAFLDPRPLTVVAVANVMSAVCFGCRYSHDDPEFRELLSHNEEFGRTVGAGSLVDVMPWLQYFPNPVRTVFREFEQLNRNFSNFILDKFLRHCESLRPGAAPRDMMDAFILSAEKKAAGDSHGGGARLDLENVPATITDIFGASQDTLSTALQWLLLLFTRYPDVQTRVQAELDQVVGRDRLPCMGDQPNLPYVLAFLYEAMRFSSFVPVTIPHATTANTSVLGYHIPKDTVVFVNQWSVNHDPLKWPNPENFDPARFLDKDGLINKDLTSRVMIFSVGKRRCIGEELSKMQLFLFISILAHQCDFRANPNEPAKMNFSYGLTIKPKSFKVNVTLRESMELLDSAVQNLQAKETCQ
As to the kind of experiment: Inhibition of human recombinant CYP1B1 using 7-ethoxyresorufin as substrate incubated under dark condition for 30 mins in presence of NADPH by EROD fluorescence assay. Format: ADME.

A further test concerns the target T2, Cytochrome P450 1A1 (Homo sapiens, UniProt P04798).
T2 sequence (P04798 whole entry): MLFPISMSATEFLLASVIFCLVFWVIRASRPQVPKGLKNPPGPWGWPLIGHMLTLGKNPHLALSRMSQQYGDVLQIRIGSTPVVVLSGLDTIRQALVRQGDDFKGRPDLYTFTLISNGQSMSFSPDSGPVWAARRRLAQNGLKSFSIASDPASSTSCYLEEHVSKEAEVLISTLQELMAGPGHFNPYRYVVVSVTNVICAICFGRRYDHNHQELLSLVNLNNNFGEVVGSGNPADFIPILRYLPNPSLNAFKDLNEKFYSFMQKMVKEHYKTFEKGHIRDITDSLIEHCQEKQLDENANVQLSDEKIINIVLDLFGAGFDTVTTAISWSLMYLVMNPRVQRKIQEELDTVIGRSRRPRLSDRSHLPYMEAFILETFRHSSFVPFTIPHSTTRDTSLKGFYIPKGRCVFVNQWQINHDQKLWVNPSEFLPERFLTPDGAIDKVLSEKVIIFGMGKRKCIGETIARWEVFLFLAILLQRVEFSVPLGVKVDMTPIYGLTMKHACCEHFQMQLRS
Nature of the test: Inhibition of human recombinant CYP1A1 using 7-ethoxyresorufin as substrate incubated under dark condition for 15 mins in presence of NADPH by EROD fluorescence assay. Format: ADME.

For a further test, the target named is T3, Cytochrome P450 1A2 (Homo sapiens, UniProt P05177).
T3 sequence (P05177 whole entry): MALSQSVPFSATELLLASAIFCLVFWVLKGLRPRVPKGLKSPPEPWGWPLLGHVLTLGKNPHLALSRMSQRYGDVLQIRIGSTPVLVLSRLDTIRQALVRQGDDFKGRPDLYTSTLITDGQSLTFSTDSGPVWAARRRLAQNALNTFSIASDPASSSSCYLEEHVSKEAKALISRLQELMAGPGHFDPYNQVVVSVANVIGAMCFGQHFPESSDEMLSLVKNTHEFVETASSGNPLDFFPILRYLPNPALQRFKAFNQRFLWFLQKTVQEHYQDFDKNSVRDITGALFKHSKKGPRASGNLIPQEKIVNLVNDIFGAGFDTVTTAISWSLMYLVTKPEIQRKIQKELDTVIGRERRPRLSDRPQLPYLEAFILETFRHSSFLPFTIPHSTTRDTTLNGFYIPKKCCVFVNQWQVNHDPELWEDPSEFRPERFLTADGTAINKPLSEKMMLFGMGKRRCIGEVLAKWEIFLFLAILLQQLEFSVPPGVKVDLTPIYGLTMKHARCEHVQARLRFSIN
As to the kind of experiment: Inhibition of human recombinant CYP1A2 using 7-ethoxyresorufin as substrate incubated under dark condition for 45 mins in presence of NADPH by EROD fluorescence assay. Format: ADME.

Test [1] is filed under the species Homo sapiens. Nature of the test: Selectivity index, ratio of IC50 for human recombinant CYP1A1 to IC50 for human recombinant CYP1B1 using 7-ethoxyresorufin as substrate.
The species named for test [2] is Homo sapiens. Nature of the test: Selectivity index, ratio of IC50 for human recombinant CYP1A2 to IC50 for human recombinant CYP1B1 using 7-ethoxyresorufin as substrate.

Consider `O=C(Nc1cc(Cl)cc(Cl)c1)c1nc(-c2ccc(O)cc2)cs1`, for which the values for the half-maximal inhibitory concentration (IC50) at Cytochrome P450 1B1, on Cytochrome P450 1A1 and on Cytochrome P450 1A2 were 0.0416 µM, 0.758 µM and 40.3 µM, respectively. Besides, the values for the Ratio IC50 in the test listed under Homo sapiens [1] and in the test listed under Homo sapiens [2] were 18.2 and 967, respectively.

For the molecule `O=C(Nc1ccc(I)cc1)c1nc(-c2cccc(F)c2)cs1`, the IC50 on Cytochrome P450 1B1 stood at 0.00144 µM; at Cytochrome P450 1A1 it was 0.15 µM; on Cytochrome P450 1A2 it was 0.324 µM. Also, the Ratio IC50 turned out to be 104 in the test listed under Homo sapiens [1] and 225 in the test filed under Homo sapiens [2].

As for `O=C(Nc1cc(Cl)cc(Cl)c1)c1nc(-c2ccc(F)cc2)cs1`, the IC50 was 0.00142 µM at Cytochrome P450 1B1, 0.277 µM on Cytochrome P450 1A1 and 4.24 µM at Cytochrome P450 1A2. Also, the Ratio IC50 came to 195 in the test listed under Homo sapiens [1] and 2990 in the test filed under Homo sapiens [2].

With `COc1ccc(-c2csc(C(=O)Nc3cc(Cl)cc(Cl)c3)n2)cc1`, the IC50 on Cytochrome P450 1B1 was 0.22 µM; on Cytochrome P450 1A1 it was > 100 µM; at Cytochrome P450 1A2, 17.1 µM. In addition, the Ratio IC50 in the test filed under Homo sapiens [1] was > 454; in the test listed under Homo sapiens [2], 77.6.

`Cc1sc(C(=O)Nc2cc(Cl)cc(Cl)c2)nc1-c1cccc(F)c1`: the IC50 on Cytochrome P450 1B1 came out at 0.00088 µM; on Cytochrome P450 1A1 it was 0.122 µM; at Cytochrome P450 1A2 it was 1.41 µM. In addition, the Ratio IC50 in the test filed under Homo sapiens [1] amounted to 138; in the test filed under Homo sapiens [2] it was 1600.

As for `O=C(Nc1ccc(OC(F)F)cc1)c1nc(-c2ccc(Cl)cc2)cs1`, the IC50 at Cytochrome P450 1B1 is 0.0009 µM; on Cytochrome P450 1A1 it was 0.0583 µM; on Cytochrome P450 1A2, 0.33 µM. Besides, the Ratio IC50 in the test listed under Homo sapiens [1] was found to be 65.1; in the test filed under Homo sapiens [2], 368.

Regarding `N#Cc1ccc(-c2csc(C(=O)Nc3cc(Cl)cc(Cl)c3)n2)cn1`, the 50% inhibitory concentration (IC50) is 0.0115 µM on Cytochrome P450 1B1, 0.072 µM on Cytochrome P450 1A1 and 5.55 µM at Cytochrome P450 1A2. In addition, the Ratio IC50 in the test listed under Homo sapiens [1] came to 6.2; in the test listed under Homo sapiens [2], 481.

As to `O=C(Nc1cc(Cl)cc(Cl)c1)c1nc(-c2ccccc2Cl)cs1`, the IC50 at Cytochrome P450 1B1 is 0.00795 µM; at Cytochrome P450 1A1 it was 0.203 µM; at Cytochrome P450 1A2 it was 0.537 µM. For the same molecule, the Ratio IC50 in the test filed under Homo sapiens [1] came out at 25.6; in the test filed under Homo sapiens [2], 67.6.

Consider `COc1cc(NC(=O)c2nc(-c3cccc(F)c3)cs2)cc(OC)c1`, for which the figures for the IC50 at Cytochrome P450 1B1, on Cytochrome P450 1A1 and on Cytochrome P450 1A2 were 0.00729 µM, 0.474 µM and 7.24 µM, respectively. The Ratio IC50 in the test filed under Homo sapiens [1] worked out at 65.1; in the test listed under Homo sapiens [2], 993.

Take `Cc1sc(C(=O)Nc2ccc(OC(F)F)cc2)nc1-c1cccc(Cl)c1`: the IC50 on Cytochrome P450 1B1 was 0.00307 µM; at Cytochrome P450 1A1, 0.128 µM; on Cytochrome P450 1A2 it was > 100 µM. Moreover, the Ratio IC50 is 41.7 in the test filed under Homo sapiens [1] and > 32600 in the test filed under Homo sapiens [2].

Consider `O=C(Nc1ccccc1)c1nc(-c2ccccc2)cs1`, for which the IC50 was 0.027 µM on Cytochrome P450 1B1, 0.597 µM on Cytochrome P450 1A1 and 0.441 µM at Cytochrome P450 1A2. In addition, the Ratio IC50 in the test listed under Homo sapiens [1] stood at 22.1; in the test listed under Homo sapiens [2] it was 16.3.

Regarding `NC(=O)c1cccc(-c2csc(C(=O)Nc3cc(Cl)cc(Cl)c3)n2)c1`, the IC50 on Cytochrome P450 1B1 is 0.0116 µM; on Cytochrome P450 1A1 it was 1.34 µM; on Cytochrome P450 1A2, > 100 µM. Also, the results for the Ratio IC50 in the test filed under Homo sapiens [1] and in the test listed under Homo sapiens [2] were 116 and > 8640, respectively.

As for `O=C(Nc1ccc(I)cc1)c1nc(-c2ccc(F)cc2)cs1`, the figures for the 50% inhibitory concentration (IC50) on Cytochrome P450 1B1, at Cytochrome P450 1A1 and at Cytochrome P450 1A2 were 0.00397 µM, 0.127 µM and 0.641 µM, respectively. In addition, the figures for the Ratio IC50 in the test filed under Homo sapiens [1] and in the test filed under Homo sapiens [2] were 31.9 and 162, respectively.

Regarding `COc1cc(NC(=O)c2nc(-c3ccc(F)cc3)cs2)cc(OC)c1`, the IC50 was 0.00383 µM on Cytochrome P450 1B1, 0.414 µM at Cytochrome P450 1A1 and > 10 µM on Cytochrome P450 1A2. The Ratio IC50 in the test filed under Homo sapiens [1] was 108; in the test listed under Homo sapiens [2], > 2610.

As to `O=C(Nc1ccc(C(F)(F)F)cc1)c1nc(-c2cccc(F)c2)cs1`, the values for the IC50 at Cytochrome P450 1B1, at Cytochrome P450 1A1 and on Cytochrome P450 1A2 were 0.00029 µM, 0.123 µM and 0.422 µM, respectively. For the same molecule, the Ratio IC50 in the test listed under Homo sapiens [1] came out at 426; in the test listed under Homo sapiens [2], 1470.
